US10907219B2, “Compositions and methods for controlling cellular function” (STC.UNM, priority 2014, dated 2021)

What was measured:
[1] = test system: NES-ABI and PYL-eGFP in CHO cells; experiment: H2O2-induced ABA-mediated eGFP nuclear exporting (NES localization); format: cell-based
Experimental: Various cellular events are regulated by the dynamic sub-cellular translocation of proteins. To test if protein translocation can be controlled by H2O2, we used a known ABA-inducible eGFP nuclear exporting system consisting of NES-ABI and PYL-eGFP DNA constructs (FIG. 2a; Liang et al., 2011, Sci. Signal. 4, rs2). CHO cells were transfected with both plasmids for 24 hours and then incubated without additive, or with 10 μM of ABA, ABA-HP, or ABA-HP plus 10 eq of H2O2 for one hour.
NES localization experiments: CHO cells were seeded in 24-well plates at 50 K/well with coverslip for 24 hours. 0.4 μg NES-ABI and 0.2 μg eGFP-PYL (FIG. 2a, ii) of DNA plasmid were used for each well, with 30 μL of Opti-MEM (Life Technologies, Carlsbad, Calif.) and 1.8 μL of PEI. After incubation at room temperature for 15 min, the mixture was added to the cells and cultured for 24 hours. Then, 10 μM ABA-HP was added to the cells 10 minutes prior to the addition of 10 μM ABA and 100 μM of H2O2, or 10 μM GA-HP was added to the cells 10 minutes prior to the addition of 10 μM GA-AM and 100 μM of H2O2. Slides were made 30 minutes after addition of compounds and images were taken the next day.
An Axio Observer D1 fluorescent microscope (Carl Zeiss AG, Oberkochen, Germany) outfitted with HBO 100 microscopy illumination system (Carl Zeiss AG, Oberkochen, Germany; GFP: excitation 470/40 and emission 525/50) was used to analyze GFP expression and NES localization. A 20× objective was used to analyze GFP expression. A 63× objective was used for NES localization.

[2] = test system: EGFP-PYL and NES-ABI in CHO cells; experiment: Live cell confocal EGFP nuclear export; format: cell-based; settings: 10 μM, 405 nm irradiation, followed 20 minutes
Experimental: (§1) To test the uncaging process in live cell experiments, EGFP nuclear export experiments were carried out by transfecting CHO cells with EGFP-PYL and NES-ABI constructs. The cells were then either treated with 10 μM ABA-DEACM and with or without 405 nm light irradiation under a confocal microscope, or with no drug but irradiated. The subcellular location of EGFP was followed for 20 minutes after irradiation. […] We also tested the use of ABA-DEACM in live cell imaging to induce cell morphology changes. We transfected CHO cells in a culture chamber with myr-ABI and EGFP-PYLTiam1 constructs.
Live cell confocal microscopy irradiation and imaging: EGFP fluorescence of CHO cells was detected with an LSM 510 Meta confocal mounted on an AxioObserver inverted microscope (Carl Zeiss AG, Oberkochen, Germany). […] To image, fluorescence was excited with the 488 nm line of an argon laser (30 mW) with laser power attenuated to 50%. […]
Image analysis of fluorescence intensity in nuclear export experiments: Generated images were analyzed for fluorescence intensity by using Slide Book v.6 software (Intelligent Imaging Innovations, Inc., Denver, Colo.). Equal sized regions of interest were analyzed from the cytoplasm and the nucleus to compare fluorescent intensity of EGFP in three cells for each condition from images taken every 20 seconds for a duration of 20 minutes.

[3] = test system: myr-ABI and EGFP-PYL-Tiam1 in CHO cells; experiment: Live cell imaging of cytoskeletal remodeling; format: cell-based; settings: 405 nm irradiation
Experimental: as §1
Live cell confocal microscopy irradiation and imaging: EGFP fluorescence of CHO cells was detected with an LSM 510 Meta confocal mounted on an AxioObserver inverted microscope (Carl Zeiss AG, Oberkochen, Germany). ABA-DEACM was uncaged by using a 405 nm UV laser (25 mW) set to 25% power for approximately three seconds. To image, fluorescence was excited with the 488 nm line of an argon laser (30 mW) with laser power attenuated to 50%. EGFP emission was collected with a FITC filter. Live cells were plated in 8-well coverslip-bottom culture chambers in medium (200 μL) and maintained at 37° C. with an objective lens heater (Bioptechs Inc., Butler, Pa.). Culture medium was exchanged with OptiMEM (GIBCO, Life Technologies, Carlsbad, Calif.) with caged ABA or no drug prior to imaging. Images were acquired every 10 to 20 seconds in different experiments with a 63×5/1.2 NA water objective.

[4] = Chemical stability of ABA-HP in HEPES/DMSO (HPLC); format: physicochemical; settings: 1 mM, 50% HEPES/DMSO pH 7.4, 37° C., 24 hours
Experimental: (§2) Chemical stability and reactivity of ABA-HP towards H2O2: ABA-HP chemical stability: 1 mM ABA-HP (in DMSO) was incubated in 50% HEPES/DMSO (10 mM HEPES, pH 7.4) for 24 hours at 37° C. HPLC results were detected at 0 minutes, 20 minutes, 40 minutes, 60 minutes, 80 minutes, 100 minutes, 120 minutes, 240 minutes, and 24 hours. ABA-HP reactivity towards H2O2: 1 mM ABA-HP was incubated with 5 mM (5 eq) H2O2 in 50% HEPES/DMSO (10 mM HEPES, pH 7.4) at 37° C. HPLC results were detected at 0 minutes, 20 minutes, 40 minutes, 80 minutes, 100 minutes, 120 minutes, and 240 minutes (FIGS. 1c, 4a and 4b). 100 mM H2O2 was diluted with 11 μL of 30% (10 M) stock H2O2 (VWR) and 989 μL of ddH2O. […] HPLC chromatograms were acquired using an ULTIMATE 3000 LC System (Thermo Fisher Scientific, Waltham, Mass.) with ACCLAIM 120 Å, C18, 3 μm analytical (4.6×100 mm) column (Thermo Fisher Scientific, Waltham, Mass.). Chromatographic conditions: eluent A: 0.1% v/v TFA in water; eluent B: 0.1% v/v TFA in acetonitrile. ABA in ethanol or ABA-HP in DMSO was eluted at a flow rate of 0.750 ml/min monitored at a wavelength of 260 nm. 0-12 min (linear): 95% A, 5% B to 5% A, 95% B; 12-15 min: 5% A, 95% B; 15-17 min (linear): 5% A, 95% B to 95% A, 5% B. Generation of ABA was quantified by the peak area of ABA out of the total peak area.

[5] = Reaction selectivity of ABA-HP versus different molecules (HPLC); format: physicochemical; settings: four hours
Experimental: Reaction selectivity versus different molecules: 100 μM ABA-HP was incubated with 100 μM (1 eq) of different molecules in 50% HEPES/DMSO (pH 7.4) at 37° C. for 4 hours and detected by HPLC. H2S was generated by 100 μM Na2S solution in HEPES buffer, which can slowly release H2S. .OH and .OtBu were generated by reaction of Fe^2+ with H2O2 or tert-butyl hydroperoxide (TBHP), respectively. HPLC condition was the same as the stability and reactivity test of ABA-HP.

[6] = ABA-HP reactivity towards H2O2 (HPLC); format: physicochemical; settings: 1 mM + H2O2 (5 eq), 50% HEPES/DMSO, 37° C.
Experimental: as §2

[7] = 10 μM, compound alone, CHO cells

effect of Cu^+ and Cu^2+ ([5]; Cu^+ and Cu^2+ at 10 μM)	cleavage by Cu^+ and Cu^2+ ([5]; Cu^+ and Cu^2+ at 100 μM)	Compound	sub-cellular location of PYL-eGFP [1, 7]	nuclear export of EGFP fusion proteins [2]	start of membrane ruffling after uncaging [3]	time to formation of fillopodia and lemellopodia [3]	time to formation of filopodia and lamellipodia [3]	sub-cellular location of PYL-eGFP ([1]; 10 μM plus 10 eq of H2O2, CHO cells)	chemical stability in biological buffer [4]	stability against other ROS, H2S, metal ions ([5]; 100 μM ABA-HP, molecules at 100 μM, 37° C.)	completion of transformation to ABA [6]	start of conversion back to ABA [6]
–	–	CC1=CC(=O)CC(C)(C)C1(O)/C=C/C(C)=C\C(=O)O (stereo not shown) [ABA, abscisic acid, reference compound]	localized out of the nucleus	–	–	–	–	–	–	–	–	–
–	–	CCN(CC)c1ccc2c(COC(=O)/C=C(C)\C=C\[C@@]3(O)C(C)=CC(=O)CC3(C)C)cc(=O)oc2c1 [ABA-DEACM]	–	observed within a few minutes	5 min	≤ 15 min	≤ 15 min	–	–	–	–	–
no effects	minimal amount of cleavage	CC1=CC(=O)CC(C)(C)[C@@]1(O)/C=C/C(C)=C\C(=O)OCc1ccc(B2OC(C)(C)C(C)(C)O2)cc1 [ABA-HP]	did not change the sub-cellular location of eGFP-PYL	–	–	–	–	caused rapid nuclear export	stable in biological buffer at 37 °C throughout the 24-hour observation period	stable against all molecules tested at 100 μM	completed in four hours	within minutes
